Measured values: patent US8921576B2, “Spiroindoline compound, and medicinal agent comprising same” (Kowa Company, Ltd., priority 2011, dated 2014)

Molecular target: T1, GST-GK derived from human liver GK (Homo sapiens, UniProt P35557)
T1 construct: made in house; host or cells: Escherichia coli DH5α
T1 sequence (P35557 1-466 isoform P35557-2): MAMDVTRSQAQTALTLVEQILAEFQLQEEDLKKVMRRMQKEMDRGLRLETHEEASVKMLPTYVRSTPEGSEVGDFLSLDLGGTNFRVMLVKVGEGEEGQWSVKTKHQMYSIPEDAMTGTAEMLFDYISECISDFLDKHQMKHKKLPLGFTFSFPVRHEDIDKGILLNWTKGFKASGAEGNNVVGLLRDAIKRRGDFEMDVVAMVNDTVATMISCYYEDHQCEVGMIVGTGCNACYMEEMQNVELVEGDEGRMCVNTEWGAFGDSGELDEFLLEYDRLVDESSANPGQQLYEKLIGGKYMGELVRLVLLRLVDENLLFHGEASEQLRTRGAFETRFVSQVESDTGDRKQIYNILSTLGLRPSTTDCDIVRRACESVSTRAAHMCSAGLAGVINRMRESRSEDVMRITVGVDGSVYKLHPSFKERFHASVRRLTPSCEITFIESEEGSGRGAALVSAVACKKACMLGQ
Test: In vitro GK activity measurement test (G6PDH-coupled, OD340)
Assay type: biochemical
Conditions: test compound 1 μmol/L; glucose 2.5 mmol/L; 25° C.; OD340 slope with compound / without compound; read-out: GK activation rate (%)
Text: cDNA (GenBank Accession No. NM_033507, human glucokinase, variant 2) encoding human liver-type GK polypeptide was cloned by performing a polymerase chain reaction (hereinafter referred to as “PCR”) using a human liver cDNA library (Human liver QUICK-Clone cDNA, TAKARA BIO INC.), and the thus cloned cDNA was then introduced into an expression vector (pGEX-3X, GE Healthcare Japan) for glutathione S transferase (hereinafter referred to as GST) fusion protein expression. The resulting vector was introduced into Escherichia coli (Competent high DH5α, Toyobo Co., Ltd.), and the transformed Escherichia coli was then cultured at 37° C. Thereafter, Isopropyl β-D-1-thiogalactopyranoside (final concentration: 1 mmol/L, Sigma Aldrich Japan) was added to the culture, and the obtained mixture was then cultured at 30° C. for 3 hours. Thereafter, a cell mass was recovered. The recovered cell mass was subjected to freezing-and-thawing, and the resulting cell mass was then suspended in phosphate buffer with final concentration of 1% Triton X-100, followed by disintegration with an ultrasonic disruptor. The homogenate was centrifuged at 33,200 rpm at 4° C. for 1 hour. Thereafter, the supernatant was recovered, and a GST-GK fusion protein was then purified using a glutathione column (GSTrap FF, GE Healthcare Japan). The obtained GST-GK fusion protein was divided into some portions each having a small volume, and the thus divided proteins were then preserved at −80° C.
A GK assay method was carried out at 25° C. at a final incubation volume of 100 μL in a flat-bottom 96-well assay plate. An assay buffer comprised 25 mmol/L Hepes buffer (pH 7.1), 25 mmol/L KCl, 2.5 mmol/L or 10 mmol/L D-glucose, 5 mmol/L ATP, 1 mmol/L nicotinamide adenine dinucleotide phosphate (abbreviated as NADP), 2 mmol/L MgCl2, 1 mmol/L dithiothreitol (DTT), 2 units/mL glucose-6 phosphate dehydrogenase (G6PDH), and 1 μg/mL GST-GK derived from human liver GK. ATP, G6PDH, and NADP were purchased from Roche Diagnostics. […] The thus mixed solution was preincubated in an incubator in which the temperature was controlled at 25° C. for 15 minutes. Subsequently, the reaction was initiated by adding 10 μL of the GST-GK solution to the reaction mixture, resulting in a final concentration of 0.1 μg/mL. After initiation of the reaction, an increase in the optical concentration at 340 nm (OD340) was monitored with a microplate spectrophotometer (Varsamax, Molecular Devices Japan K.K.) every 10 seconds over an incubation period of 10 minutes. An inclination of the OD340 increase was defined as raw data. The GK activating rate was indicated as a numerical value obtained from the expression: (Inclination of OD340 increase by addition of the test compound)/(inclination of OD340 increase without addition of the test compound). The results of the GK activating rate obtained at a test compound concentration of 1 μmol/L under the condition of a glucose concentration of 2.5 mmol/L are shown in the following table.

Row | Structure (SMILES) | activity at 1 µM
1 | COc1cnc(NC(=O)N2CC3(CCN(C(C)=O)C3)c3cc(C(F)(F)F)ccc32)s1 (centres unmarked) [Example 437, 1′-Acetyl-N-(5-methoxythiazol-2-yl)-5-(trifluoromethyl)spiro[indoline-3,3′-pyrrolidine]-1-carboxamide] | 506%
2 | CNC(=O)N1CCC2(C1)CN(C(=O)Nc1ncc(OC)s1)c1ccc(C(F)(F)F)cc12 (centres unmarked) [Example 439, N1-(5-Methoxythiazol-2-yl)-N1′-methyl-5-(trifluoromethyl)spiro[indoline-3,3′-pyrrolidine]-1,1′-dicarboxamide] | 520%
3 | CNC(=O)N1CC[C@@]2(C1)CN(C(=O)Nc1ncc(Cl)s1)c1ccc(C#N)cc12 [Example 376, (R)—N1-(5-Chlorothiazol-2-yl)-5-cyano-N1′-methylspiro[indoline-3,3′-pyrrolidine]-1,1′-dicarboxamide] | 528%
4 | CNC(=O)N1CCC2(C1)CN(C(=O)Nc1ncc(Cl)s1)c1ccc(C(F)(F)F)cc12 (centres unmarked) [Example 432, N1-(5-Chlorothiazol-2-yl)-N1′-methyl-5-(trifluoromethyl)spiro[indoline-3,3′-pyrrolidine]-1,1′-dicarboxamide] | 613%
5 | COC(=O)N1CC[C@@]2(C1)CN(C(=O)Nc1ncc(Cl)s1)c1ccc(Cl)cc12 [Example 351, (S)-methyl 5-chloro-1-((5-chlorothiazol-2-yl)carbamoyl)spiro[indoline-3,3′-pyrrolidine]-1′-carboxylate] | 886%
6 | CNC(=O)N1CCC2(C1)CN(C(=O)Nc1ncc(Cl)s1)c1ccc(Cl)cc12 (centres unmarked) [Example 373, 5-chloro-N1-(5-chlorothiazol-2-yl)-N1′-methylspiro[indoline-3,3′-pyrrolidine]-1,1′-dicarboxamide] | 476%
7 | COCCN(Cc1ccccc1)S(=O)(=O)c1ccc2c(c1)[C@@]1(CCN(C(=O)OC)C1)CN2C(=O)Nc1nc2ccc(OC)nc2s1 [Example 344, (S)-methyl 5-(N-benzyl-N-(2-methoxyethyl)sulfamoyl)-1-((5-methoxythiazolo[5,4-b]pyridin-2-yl)carbamoyl)spiro[indoline-3,3′-pyrrolidine]-1′-carboxylate] | 647%
8 | CCNC(=O)N1CCC2(C1)CN(C(=O)Nc1ncc(Cl)s1)c1ccc(Cl)cc12 (centres unmarked) [Example 379, 5-Chloro-N1-(5-chlorothiazol-2-yl)-N1′-ethylspiro[indoline-3,3′-pyrrolidine]-1,1′-dicarboxamide] | 554%
9 | COc1ccc2nc(NC(=O)N3CC4(CCN(C(C)=O)C4)c4cc(S(=O)(=O)NCc5cccs5)ccc43)sc2n1 (centres unmarked) [Example 273, 1′-Acetyl-N-(5-methoxythiazolo[5,4-b]pyridin-2-yl)-5-(N-(thiophen-2-ylmethyl)sulfamoyl)spiro[indoline-3,3′-pyrrolidine]-1-carboxamide] | 692%
10 | COC(=O)N1CCC2(C1)CN(C(=O)Nc1ncc(SCCCN(C)C)s1)c1ccc(Cl)cc12 (centres unmarked) [Example 180, Methyl 5-chloro-1-((5-((3-(dimethylamino)propyl)thio)thiazol-2-yl)carbamoyl)spiro[indoline-3,3′-pyrrolidine]-1′-carboxylate] | 442%
11 | CN(C)CCN(Cc1ccccc1)S(=O)(=O)c1ccc2c(c1)C1(CCN(C=O)C1)CN2C(=O)Nc1ncc(F)s1 (centres unmarked) [Example 308, 5-(N-benzyl-N-(2-(dimethylamino)ethyl)sulfamoyl)-N-(5-fluorothiazol-2-yl)-1′-formylspiro[indoline-3,3′-pyrrolidine]-1-carboxamide] | 504%
12 | CCOC(=O)CSc1cnc(NC(=O)N2C[C@]3(CCN(C(=O)OC)C3)c3cc(Br)ccc32)s1 [Example 334, (S)-methyl 5-bromo-1-((5-((2-ethoxy-2-oxoethyl)thio)thiazol-2-yl)carbamoyl)spiro[indoline-3,3′-pyrrolidine]-1′-carboxylate] | 705%
13 | COCCN(Cc1ccccc1)S(=O)(=O)c1ccc2c(c1)C1(CCN(C(C)=O)C1)CN2C(=O)Nc1nc2ccc(OC)nc2s1 (centres unmarked) [Example 288, 1′-Acetyl-5-(N-benzyl-N-(2-methoxyethyl)sulfamoyl)-N-(5-methoxythiazolo[5,4-b]pyridin-2-yl)spiro[indoline-3,3′-pyrrolidine]-1-carboxamide] | 793%
14 | COc1ccc2nc(NC(=O)N3CC4(CCN(C(C)=O)C4)c4cc(S(=O)(=O)NCc5ccccc5F)ccc43)sc2n1 (centres unmarked) [Example 269, 1′-Acetyl-5-(N-(2-fluorobenzyl)sulfamoyl)-N-(5-methoxythiazolo[5,4-b]pyridin-2-yl)spiro[indoline-3,3′-pyrrolidine]-1-carboxamide] | 640%
15 | CONC(=O)CCCSc1cnc(NC(=O)N2CC3(CCN(C(=O)OC)C3)c3cc(Cl)ccc32)s1 (centres unmarked) [Example 168, methyl 5-chloro-1-((5-((4-(methoxyamino)-4-oxobutyl)thio)thiazol-2-yl)carbamoyl)spiro[indoline-3,3′-pyrrolidine]-1′-carboxylate] | 462%
16 | COC(=O)N1CC[C@@]2(C1)CN(C(=O)Nc1nc3ccc(OC)nc3s1)c1ccc(S(=O)(=O)N(CCN(C)C)Cc3ccccc3)cc12 [Example 347, (S)-methyl 5-(N-benzyl-N-(2-(dimethylamino)ethyl)sulfamoyl)-1-((5-methoxythiazolo[5,4-b]pyridin-2-yl)carbamoyl)spiro[indoline-3,3′-pyrrolidine]-1′-carboxylate] | 611%

More lines, now with the values ahead:

Row | activity at 1 µM | Structure (SMILES)
17 | 474% | CNC(=O)CCNC(=O)N1CCC2(C1)CN(C(=O)Nc1ncc(Cl)s1)c1ccc(Cl)cc12 (centres unmarked) [Example 465, 5-Chloro-N1-(5-chlorothiazol-2-yl)-N1′-(3-(methylamino)-3-oxopropyl)spiro[indoline-3,3′-pyrrolidine]-1,1′-dicarboxamide]
18 | 526% | O=C(NCCCO)N1CCC2(C1)CN(C(=O)Nc1ncc(Cl)s1)c1ccc(Cl)cc12 (centres unmarked) [Example 464, 5-chloro-N1-(5-chlorothiazol-2-yl)-N1′-(3-hydroxypropyl)spiro[indoline-3,3′-pyrrolidine]-1,1′-dicarboxamide]
19 | 470% | O=C(CCCNC(=O)N1CCC2(C1)CN(C(=O)Nc1ncc(Cl)s1)c1ccc(Cl)cc12)N1CCC1 (centres unmarked) [Example 471, N1′-(4-(Azetidin-1-yl)-4-oxobutyl)-5-chloro-N1-(5-chlorothiazol-2-yl)spiro[indoline-3,3′-pyrrolidine]-1,1′-dicarboxamide]
20 | 405% | CCOC(=O)CCCNC(=O)N1CCC2(C1)CN(C(=O)Nc1ncc(Cl)s1)c1ccc(Cl)cc12 (centres unmarked) [Example 468, Ethyl 4-(5-chloro-1-((5-chlorothiazol-2-yl)carbamoyl)spiro[indoline-3,3′-pyrrolidin]-1′-ylcarboxamido)butanoate]
21 | 459% | O=C(NCCCCO)N1CCC2(C1)CN(C(=O)Nc1ncc(Cl)s1)c1ccc(Cl)cc12 (centres unmarked) [Example 470, 5-chloro-N1-(5-chlorothiazol-2-yl)-N1′-(4-hydroxybutyl)spiro[indoline-3,3′-pyrrolidine]-1,1′-dicarboxamide]
22 | 454% | CCOC(=O)CCNC(=O)N1CCC2(C1)CN(C(=O)Nc1ncc(Cl)s1)c1ccc(Cl)cc12 (centres unmarked) [Example 462, Ethyl 3-(5-chloro-1-((5-chlorothiazol-2-yl)carbamoyl)spiro[indoline-3,3′-pyrrolidin]-1′-ylcarboxamido)propionate]
23 | 477% | CONC(=O)N1CCC2(C1)CN(C(=O)Nc1ncc(Cl)s1)c1ccc(Cl)cc12 (centres unmarked) [Example 480, 5-Chloro-N1-(5-chlorothiazol-2-yl)-N1′-methoxyspiro[indoline-3,3′-pyrrolidine]-1,1′-dicarboxamide]
